Experimental data published in patent US20130244255A1, “ANTIBODIES DIRECTED TO GPNMB AND USES THEREOF” (priority 2006, published 2013).
Entries after “also recorded” stand apart in the source; their conditions may differ. Structures can show the parent of a compound that is named as a salt. One block for each compound: values may come before it. Where a SMILES comes first, the peptide text is derived from it. [ ]: non-standard residue; d: D form. The star is where a group is joined. Dolaproine = CO[C@@H]([C@@H]1CCCN1)[C@@H](C)C(=O)O; Dil = CC[C@H](C)[C@H](NC)[C@@H](CC(=O)O)OC; X1 = C[C@@H](N*)[C@@H](O)c1ccccc1; NMeV = CN[C@H](C(=O)O)C(C)C

Experiments:
CG56972/GPNMB = target: T1, CG56972/GPNMB (Homo sapiens, UniProt Q14956); test: FACS binding of CR011 IgG1 and IgG2 on SK-MEL-2 cells
T1 construct: endogenous in cells; host or cells: UACC-62 and a panel of melanoma lines (A5); SK-MEL-2 (A52); SK-Mel-5 (A63)
T1 sequence (Q14956 23-572): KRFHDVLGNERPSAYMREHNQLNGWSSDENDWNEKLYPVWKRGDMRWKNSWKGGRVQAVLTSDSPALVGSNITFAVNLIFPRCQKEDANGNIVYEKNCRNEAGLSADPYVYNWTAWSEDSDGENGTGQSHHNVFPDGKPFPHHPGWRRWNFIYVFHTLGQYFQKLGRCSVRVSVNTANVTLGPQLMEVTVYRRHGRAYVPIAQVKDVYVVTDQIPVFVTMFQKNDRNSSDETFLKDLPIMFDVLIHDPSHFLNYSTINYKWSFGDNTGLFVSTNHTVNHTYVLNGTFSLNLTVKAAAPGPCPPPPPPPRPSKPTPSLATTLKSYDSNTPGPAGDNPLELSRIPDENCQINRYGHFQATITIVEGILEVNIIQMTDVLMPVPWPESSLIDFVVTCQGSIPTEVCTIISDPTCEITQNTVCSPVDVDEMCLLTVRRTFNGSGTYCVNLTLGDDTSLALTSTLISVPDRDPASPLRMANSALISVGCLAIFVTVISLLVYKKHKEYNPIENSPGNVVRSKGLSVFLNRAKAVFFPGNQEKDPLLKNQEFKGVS

SK-Mel-2 cells = test: ADCC assay with human PBMC (DELFIA EuTDA cytotoxicity); assay type: cell-based; conditions: 30 to 100 fold PBMC; 2, 5, 10 μg/200 μl mAb
Method: Human PBMC were isolated from whole blood using a Ficoll-Plaque. Briefly, in a 50 mL tube, 15 mL of PBS was added to 20 mL of whole blood which was underlayed with 10 mL Ficoll-Plaque and the tube was centrifuged at 2000 RPM. Mononuclear cells were collected from the interface and washed 3 times with PBS. The ADCC assay was carried out in a 96 well plate using a fluorescence assay for cytolysis from Perkin-Elmer (DELFIAEuTDA Cytotoxic assay). The procedure is based on loading target cells with a fluorescence enhancing ligand (BATDA, bis (acetoxymethyl) terpyridine—dicarboxylate). The hydrophic ligand penetrates the membrane quickly. Within the cell the esterbonds are hydrolyzed to form a hydrophilic ligand (TDA, terpyridine—dicarboxylic acid) which can no longer pass through the membrane. After cytolysis the ligand is released and introduced to the Europium solution. The europium and the ligand form a highly fluorescent and stable chelate (EuTDA). Fluorescence intensity are recorded using excitation and emission wavelengths as λex=340 nm and λem=613 nm, respectively.

[1] = system: SK-MEL-5 human melanoma xenograft; test: SK-MEL-5 human melanoma xenograft in athymic mice; assay type: in vivo
Method: (§1) The tumor inhibitory activity of the CR011-MMAE immunoconjugate was measured in an anti-tumor xenograft model using athymic mice, according to published methods (see Geran et al., Cancer Chemother. Rep. 3:1-104 (1972)). […] When tumors became established (10-20 days), the animals were pair-matched into groups (n=6 mice/group), and treatment was administered by intravenous injection (tail vein).
(§2) The SK-MEL-2 human melanoma (ATCC #HTB-68) was derived from a metastatic site (skin of thigh) of a person with malignant melanoma, and the SK− MEL-5 human melanoma (ATCC #HTB-70) was derived from a metastatic site (axillary lymph node) of a person with malignant melanoma (see Fogh et al., J. Natl. Cancer Inst. 59: 221-226 (1977)). Both cell lines were obtained from the American Type Culture Collection.
(§3) The effects of treatment were monitored by repetitive tumor measurements across 2 diameters with Vernier calipers; tumor size (in mg) was calculated using a standard formula, (W^2×L)/2, assuming a specific gravity of 1.0. Tumor size and body weights were assessed twice weekly. Mice were examined daily, however, and moribund animals were humanely euthanized if clinical indications of excessive pain or distress were noted (i.e., prostration, hunched posture, paralysis/paresis, distended abdomen, ulcerations, abscesses, seizures, and/or hemorrhages) Animals with tumors exceeding 2,000 mg were removed from the study and euthanized humanely.
Soon after the commencement of treatment with paclitaxel, however, significant tumor growth inhibition was observed (P≦0.039) at day 3 after treatment began, and this anti-tumor effect continued, producing 100% growth inhibition (stasis). The responses of SK-MEL-5-bearing test animals to vinblastine and paclitaxel were short-lived. After cessation of treatment at the maximally tolerated doses, tumors resumed rapid, progressive growth.

[2] = system: SK-MEL-2 human melanoma xenograft; test: SK-MEL-2 human melanoma xenograft in athymic mice; assay type: in vivo
Method: Five- to 6-week old athymic mice (CD-1 nu/nu females), used for human tumor xenografts, were obtained from Harlan Laboratories (Indianapolis, Ind.). Animals were housed in specific pathogen-free conditions, according to the guidelines of the Association for Assessment and Accreditation of Laboratory Animal Care International (AAALAC International). Test animals were provided pelleted food and water ad libitum and kept in a room with conditioned ventilation (HVAC), temperature (22°±2° C.), relative humidity (55%±15%), and photoperiod (12 hr). All studies were carried out with approved institutional animal care and use protocols.
as §1, §2, §3
No apparent or statistically significant anti-tumor effects were observed. […] In preliminary studies, tumor regression was complete and was not followed by regrowth of the tumor despite lengthy observation periods (up to 200 days).

UACC-62 = test: Anti-GPNMB antibody mediated indirect cell killing (saporin secondary conjugate, colony count); assay type: cell-based, human; conditions: 5-FU 600 uM; antibodies with saporin toxin-conjugated secondary antibody
Method: UACC-62, a GPNMB antigen expressing cell line, and TK10, a non-expressing cell line were plated onto flat bottom 96-well tissue culture plates (Becton Dickinson, Franklin Lakes, N.J., USA) at a density of 3000 cells per well. Once the cells reached ˜25% confluency, 100 ng/well of secondary antibody-toxin conjugate (goat anti-human IgG-saporin; Advanced Targeting Systems, San Diego, USA, HUM-ZAP; cat #IT-22) was added. Anti-GPNMB MAbs 2.10.2, 2.22.1, 1.15.1 or isotype control mAb (pK16.3) were added to each well at a final concentration of 10 or 50 μg/mL. An anti-EGFR monoclonal antibody (MS-269-PABX, NeoMarkers, Fremont, Calif., USA) was used as a positive primary antibody control. Chemotherapy reagent 5-FU at 600 uM was used as a positive reagent control. On day 5, the cells were trypsinized, transferred to 6-well tissue culture plates and incubated at 37° C. Plates were examined daily and between 8-10 days, all plates were Giemsa stained and colonies were counted.

FACS shift on SK-MEL-2 cells vs isotype control mAbs (CG56972/GPNMB): comparable FACS shifts
Compound: CR011 IgG1 mAb: CR011 mAb 1.15.1 switched to IgG1 constant region; heavy chain SEQ ID NO: 395
cytolysis of SK-MEL-2 cells (ADCC) (SK-Mel-2 cells): caused cytolysis of SK-MEL-2 cells in a dose dependent manner

Compound: CC(=O)O[C@H]1C(=O)[C@@]2(C)[C@H]([C@H](OC(=O)c3ccccc3)[C@]3(O)C[C@H](OC(=O)[C@H](O)[C@@H](NC(=O)c4ccccc4)c4ccccc4)C(C)=C1C3(C)C)[C@]1(OC(C)=O)CO[C@@H]1C[C@@H]2O [Paclitaxel, paclitaxel, reference compound]
growth inhibition (stasis) ([1]; paclitaxel 24 mg/kg i.v. q2d×4): 100%
long-term, tumor-free survivor ([1]; paclitaxel group): One
growth inhibition (tumor stasis) ([2]; paclitaxel i.v. 24 mg/kg q2d×4, for approximately 2 weeks after treatment commenced): 100%

Compound: CC[C@H](C)[C@@H]([C@@H](CC(=O)N1CCC[C@H]1[C@H](OC)[C@@H](C)C(=O)N[C@H](C)[C@@H](O)c1ccccc1)OC)N(C)C(=O)[C@@H](NC(=O)[C@@H](NC)C(C)C)C(C)C [monomethylauristatin E, reference compound] (H-[NMeV]V[Dil][Dolaproine]-X1)
tumor growth inhibition by components of the immunoconjugate (in words) ([2]; doses identical to that contained in the intact immunoconjugate (5 mg/kg q4d×4)): lack of responses; also recorded: lack of tumor growth inhibition

Compound: CC[C@]1(O)C[C@@H]2CN(CCc3c([nH]c4ccccc34)[C@@](C(=O)OC)(c3cc4c(cc3OC)N(C)[C@H]3[C@@](O)(C(=O)OC)[C@H](OC(C)=O)[C@]5(CC)C=CCN6CC[C@]43[C@@H]65)C2)C1 [Vinblastine, vinblastine sulfate, reference compound]
anti-tumor effect (in words) ([1]; i.v., CR011-vcMMAE 1.25 to 20 mg/kg q4d×4, vinblastine […] q4d×4): noticeable, but not significant tumor growth inhibition
anti-tumor effect (in words) ([2]; i.v., CR011-vcMMAE 20, 10, 5 or 2.5 mg/kg q4d×4, vinblastine […] q4d×4): very slight, but not significant, anti-tumor effect

Compound: O=c1[nH]cc(F)c(=O)[nH]1 [Mab 5-FU]
effect on UACC-62 cells (in words) (UACC-62): complete killing
